In article PMC10654507, “A cleavable chimeric peptide with targeting and killing domains enhances LPS neutralization and antibacterial properties against multi-drug resistant E. coli” (Communications Biology, 2023):
≈ marks a conversion by molar mass, not a printed value. Residues, ends and D or L forms follow the SMILES beside them.

Columns and labels:
S. aureus CVCC546 = type: cell-based, Staphylococcus aureus; settings: repeated three times; for MBC: lowest concentration giving 99.9% reduction of the inoculum; for MIC: microtiter broth dilution, 10^5 CFU/mL, 37 °C, 16 ~ 18 h
Description: (§1) The minimum inhibitory concentration (MIC) and minimum bactericidal concentration (MBC) of peptides were determined by the microtiter broth dilution method according to Clinical and Laboratory Standards Institute (CLSI) guidelines. […] PBS was used as the negative control. […] The MBC value was calculated as the lowest concentration of peptides resulting in a 99.9% reduction of the original inoculum. All experiments were repeated three times.

RAW264.7 cells = assay: Cytotoxicity, MTT method; type: cell-based; settings: for RAW 264.7 cell survival: 128 μM; for cytotoxicity: low concentration (0 ~ 32 μM)
Description: RAW264.7 cells (2.5 × 10^4 cells/mL, 100 μL) were added into the 96-well plate and cultured at 37 °C in 5% CO2 for 24 h. After removing the medium and washing twice with PBS, 100 μL peptides (1, 2, 4, 8, 16, 32, 64 and 128 μM) were added to each well. PBS was served as the negative control. After incubation for 24 h, 20 μL MTT (5 mg/mL) was added into each well and incubated for another 4 h. Then, the supernatant was removed and 150 μL dimethylsulfoxide (DMSO) was added into the plate and shaken for 10 min. The absorbance of each well was measured at 570 nm and the survival rate of cells was calculated as follows: Survival (%) = [(Abspeptide/ Abscontrol)] × 100, where Abspeptide and Abscontrol present the absorbance of peptide and PBS control, respectively.

MDR E. coli CVCC195 [1] = assay: Lung injury score (H&E histology), E. coli-challenged mice; type: in vivo, mouse; settings: for lung injury score: 7 μmol/kg i.p. pre-treatment, three mice/group; for Pathological analysis of lung (lung injury score): Fig. 6b source data, peptide + E. coli, mean
Description: Lung injury was analyzed histologically at 12 h or 24 h. a Histopathological images of lung sections after staining with hematoxylin and eosin (H&E). Images are presented at a magnification of 100×. b Pathological analysis of lung. Lung injury involves in inflammation (such as peribronchial, perivascular, intrabronchial, and pulmonary interstitial one), bronchial exudate, and alveolar septal thickening, respectively. The specific degree of lung injury of each mouse is assessed by Score 0 (asymptomatic), Score 1 (mild), Score 2 (moderate), and Score 3 (severe), respectively. c The number of counted infiltrated inflammatory cells within processed lung sections from a. Data represent the mean ± SD of three independent experiments. Different lower-case letters indicate a significant difference between the two groups (p < 0.05).
(§2) Lung tissues were taken at 12 h and 24 h, respectively, washed with PBS, and fixed in 4% paraformaldehyde overnight. After dehydration in different concentrations of ethanol (including 75%, 85%, 90%, and 95%, respectively), the tissues were embedded in paraffin, sliced, and stained with hematoxylin. Observation was performed under a light microscope. The mice only injected with E. coli, LPS or PBS was regard as the negative or blank control.

LPS = assay: Lung injury score (H&E histology), LPS-challenged mice; type: in vivo, mouse; settings: 7 μmol/kg pre-treatment, 24 h (implied by contrast with 12 h)
Description: Fig. 8 Effects of cleavable chimeric peptide R7 on lung injury in mice. […] Lung injury was analyzed histologically at 12 h or 24 h, respectively. a Histopathological images of lung sections after staining with hematoxylin and eosin (H&E). Images are presented at a magnification of 100×. b Pathological analysis of lung. Lung injury involves in inflammation (such as peribronchial, perivascular, intrabronchial, and pulmonary interstitial one), bronchial exudate, and alveolar septal thickening, respectively. The specific degree of lung injury of each mouse is assessed by Score 0 (asymptomatic), Score 1 (mild), Score 2 (moderate), and Score 3 (severe), respectively. c The number of counted infiltrated inflammatory cells within processed lung sections from (a). Data represent the mean ± SD of three independent experiments. Different lower-case letters indicate a significant difference between the two groups (p < 0.05).
as §2

MDR E. coli CVCC195 [2] = assay: Mouse survival, preventive treatment before MDR E. coli challenge; type: in vivo; settings: 7 μmol/kg i.p. at 0 h, MDR E. coli CVCC195 0.5 × 10^9 CFU/mouse i.p. at 6 h; five mice/group
Description: A sepsis mouse model established in our laboratory was used to evaluate the prevention effect of peptides. […] The survival rate of mice was recorded for 7 days. The mice injected with saline were used as negative control.

S. typhimurium CVCC533 = type: cell-based, Salmonella typhimurium; settings: repeated three times; for MBC: lowest concentration giving 99.9% reduction of the inoculum; for MIC: microtiter broth dilution, 10^5 CFU/mL, 37 °C, 16 ~ 18 h
Description: as §1

[3] = system: E. coli, S. typhimurium and S. aureus; type: cell-based; settings: tested S. aureus strains
Description: as §1

MDR E. coli CVCC195 [4] = assay: Efficacy of different doses of R7 in mice challenged with MDR E. coli (survival); type: in vivo, mouse; design: key: 1 represents a mouse death; 0 represents no death; settings: Supplementary Fig. 4 source data, MDR E. coli challenge
Description: Supplementary Figure 4. Eﬀicacy of different doses of cleavable chimeric peptide R7 in the mice
challenged with MDR E. coli. Mice were intraperitoneally injected with 3.5, 7 or 14 μmol/kg R7 at 0
h (five mice/group), followed by injection with MDR E. coli CVCC195 (0.5×10^9 CFU/mouse) at 6 h.
PBS was used as control. Survival was recorded for 7 d.

SMILES	MBC (S. aureus CVCC546)	MIC (S. aureus CVCC546)	RAW 264.7 cell survival (RAW264.7 cells)	cytotoxicity (RAW264.7 cells)	lung injury score (MDR E. coli CVCC195 [1]; 12 h after E. coli infection)	lung injury score (MDR E. coli CVCC195 [1]; 24 h after E. coli infection)	Pathological analysis of lung (lung injury score) (MDR E. coli CVCC195 [1]; 12 h)	Pathological analysis of lung (lung injury score) (MDR E. coli CVCC195 [1]; 24 h)	lung injury score (LPS)	mouse survival at 7 days (MDR E. coli CVCC195 [2])	MBC (S. typhimurium CVCC533)	MIC (S. typhimurium CVCC533)	also measured
CSCC[C@H](NC(=O)[C@H](CCCNC(=N)N)NC(=O)[C@H](Cc1c[nH]c2ccccc12)NC(=O)[C@H](C)NC(=O)[C@H](Cc1c[nH]c2ccccc12)NC(=O)[C@H](CCCNC(=N)N)NC(=O)[C@H](Cc1c[nH]c2ccccc12)NC(=O)[C@H](C)NC(=O)[C@H](CCCCN)NC(=O)[C@@H](N)Cc1ccccc1)C(=O)N[C@@H](CCCCN)C(=O)N[C@@H](CCCCN)C(=O)N[C@@H](CC(C)C)C(=O)N[C@@H](C)C(=O)N[C@@H](C)C(=O)N1CCC[C@H]1C(=O)N[C@@H](CO)C(=O)O [L7] (H-FKAWRWAWRMKKLAAPS-OH)	36.2 µM (≈ 77.2 µg/mL)	18.1 µM (≈ 38.6 µg/mL)	87.7%	no hemolysis and cytotoxicity	7.7 points	5.7 points	6.667	7	6.3 points	60%	18.1 µM (≈ 38.6 µg/mL)	18.1 µM (≈ 38.6 µg/mL)	–
CSCC[C@H](NC(=O)[C@H](CCCNC(=N)N)NC(=O)[C@H](Cc1c[nH]c2ccccc12)NC(=O)[C@H](C)NC(=O)[C@H](Cc1c[nH]c2ccccc12)NC(=O)[C@H](CCCNC(=N)N)NC(=O)[C@H](Cc1c[nH]c2ccccc12)NC(=O)[C@H](C)NC(=O)[C@H](CCCCN)NC(=O)[C@H](Cc1ccccc1)NC(=O)[C@H](CCCNC(=N)N)NC(=O)[C@H](CCCNC(=N)N)NC(=O)[C@H](CCCCN)NC(=O)[C@H](CCCNC(=N)N)NC(=O)[C@H](CCCCN)NC(=O)[C@H](Cc1ccccc1)NC(=O)[C@H](Cc1ccccc1)NC(=O)[C@H](CO)NC(=O)[C@H](C)NC(=O)[C@H](CCCNC(=N)N)NC(=O)[C@@H](NC(=O)[C@H](CCCCN)NC(=O)[C@H](Cc1c[nH]c2ccccc12)NC(=O)[C@H](CCCNC(=N)N)NC(=O)CNC(=O)[C@H](CCC(N)=O)NC(=O)[C@@H](NC(=O)[C@@H](N)CCCNC(=N)N)C(C)C)C(C)C)C(=O)N[C@@H](CCCCN)C(=O)N[C@@H](CCCCN)C(=O)N[C@@H](CC(C)C)C(=O)N[C@@H](C)C(=O)N[C@@H](C)C(=O)N1CCC[C@H]1C(=O)N[C@@H](CO)C(=O)O [R7] (H-RVQGRWKVRASFFKRKRRFKAWRWAWRMKKLAAPS-OH)	2.26 µM (≈ 10.1 µg/mL)	2.26 µM (≈ 10.1 µg/mL)	58.2%	no hemolysis and cytotoxicity	4.3 points	2.0 points	2.333	2	3.0 points	100%	2.26 µM (≈ 10.1 µg/mL)	1.13 µM (≈ 5.06 µg/mL)	increase of activity compared to parent peptides (LBP14-RKRR and L7) [3]: ≥ 2 fold; efficacy of different doses, survival, event (MDR E. coli CVCC195 [4]; 3.5 μmol/kg R7, day 1, one cell per mouse): 1; efficacy of different doses, survival, event (MDR E. coli CVCC195 [4]; 3.5 μmol/kg R7, day 7): 0; efficacy of different doses, survival, event (MDR E. coli CVCC195 [4]; 7 μmol/kg R7, day 1): 0; efficacy of different doses, survival, event (MDR E. coli CVCC195 [4]; 7 μmol/kg R7, day 2): 0; efficacy of different doses, survival, event (MDR E. coli CVCC195 [4]; 7 μmol/kg R7, day 3): 0; efficacy of different doses, survival, event (MDR E. coli CVCC195 [4]; 7 μmol/kg R7, day 4): 0; efficacy of different doses, survival, event (MDR E. coli CVCC195 [4]; 7 μmol/kg R7, day 7): 0; efficacy of different doses, survival, event (MDR E. coli CVCC195 [4]; 14 μmol/kg R7, day 1): 0; efficacy of different doses, survival, event (MDR E. coli CVCC195 [4]; 14 μmol/kg R7, day 2): 0; efficacy of different doses, survival, event (MDR E. coli CVCC195 [4]; 14 μmol/kg R7, day 3): 0; efficacy of different doses, survival, event (MDR E. coli CVCC195 [4]; 14 μmol/kg R7, day 5): 0; efficacy of different doses, survival, event (MDR E. coli CVCC195 [4]; 14 μmol/kg R7, day 7): 0
